Results: US20240182492A1, “AZAHETEROARYL COMPOUND, PREPARATION METHOD THEREFOR, AND APPLICATION THEREOF” (SHANGHAI BLUERAY BIOPHARMA CO., LTD., priority 2021, published 2024)

Key:
[1] = system: trimethylation level of histone H3K27 in G401 cells; assay: ELISA (H3K27 trimethylation) analysis in G401 cells; assay type: cell-based; conditions: H3K27me3 normalized by H3
Method: Example 54: ELISA (H3K27 Trimethylation) Analysis
Representative compounds of the present disclosure are diluted in DMSO with 3-fold gradient, and 10 concentration gradients are tested per compound. The maximum testing concentration is 10 μM. The compound is diluted 200-fold into G401 cells cultured in 96-well plates (the final concentration of DMSO is 0.5%). After the cells are cultured for 72 hours, the trimethylation level of histone H3K27 is detected by ELISA method.
Histone extraction: compound-treated cells in a 96-well plate are washed 3 times with 1×PBS (10×PBS buffer (80 g NaCl (Sigma, Product No. S3014), 2 g KCl (Sigma, Product No. 60128), 14.4 g Na2HAPO4 (Sigma, Product No. S5136) and 2.4 g KH2PO4 (Sigma, Product No. P9791) are added to 1 L water, pH to 7.4), and 100 μL of 0.4N HCl is added to each well. The 96-well plate is placed at 4° C. and gently shaken for 2 hours to lyse the cells. The cell lysate is then neutralized with 80 μL of neutralization buffer (0.5M disodium hydrogen phosphate, pH 12.5, 2.5 mM DTT; 1% cocktail (Sigma, Product No. P8340) (mixing the cell lysate and neutralization buffer thoroughly).
ELISA detection method: the cell lysates are transferred in parallel to two 384-well assay plates (PerkinElmer, OptiPlate-384HB, Product No. 6007290). One plate is used to detect the trimethylation level of H3K27, and the other plate is used to measure the level of H3. PBS is adjusted to a final volume of 50 μL/well. The wells are coated overnight at 4° C. On the next day, the solution in the wells was discarded. TBST buffer (1 xTBS (10×TBS: 24.2 g Tris (Sigma, Product No. T6066) and 80 g NaCl (Sigma, Product No. S3014) are added to 1 L water, and pH is adjusted to 7.6 with HCl) and 0.1% Tween-20) is used to wash it 5 times, and the water is dried on absorbent papers. 70 μL of blocking buffer (TBST, 5% BSA) is added to the coated reaction wells, and the wells are incubated for 1 hour at room temperature. The blocking buffer was discarded, and the primary antibody is added (30 μL/well). The required primary antibodies are diluted with blocking buffer, and the dilution ratios were as follows: anti-H3K27me3 antibody (Cell Signaling Technology, Product No. 9733), 1:2000 dilution; anti-H3 antibody (Cell Signaling Technology, Product No. 4499), 1:10000 dilution. After adding the primary antibody, the wells are incubated at room temperature for 1 hour. After washing with TBST for 5 times, the water are dried. The secondary antibody (30 μL/well) is added to each reaction well, and the wells are incubated at room temperature for 1 hour. Secondary antibody (anti-rabbit antibody (Jackson ImmunoResearch, Product No. 111-035-003)) is used after dilution 2000-fold in blocking buffer. After 1 hour, it is washed with TBST and dried. 30 μL of ECL substrate (Pierce, Product No. 34080) is added to each well and centrifuged for 30 seconds at 2000 rpm. Signal of each sample is detected using Molecular Devices, SpectraMax. Data processing: H3K27 methylation readings are first normalized by H3 signal. 0.500 DM8)-treated sample is used as a control, and the inhibition percentage of the compound is calculated. The data is fitted to a dose-response curve using the GraphPad prisim5 program, obtaining the IC50 values of the test compounds.

[2] = biological target: T1, EED protein (full-length, His6 tag) binding to H3K27me3 polypeptide (Homo sapiens, UniProt O75530); assay: AlphaScreen evaluation of blocking the binding of EED to H3K27Me3; conditions: EED / biotinylated H3K27me3 peptide competition
T1 construct: The full-length EED protein (441 amino acids) with His6 tag
T1 sequence (O75530 whole entry): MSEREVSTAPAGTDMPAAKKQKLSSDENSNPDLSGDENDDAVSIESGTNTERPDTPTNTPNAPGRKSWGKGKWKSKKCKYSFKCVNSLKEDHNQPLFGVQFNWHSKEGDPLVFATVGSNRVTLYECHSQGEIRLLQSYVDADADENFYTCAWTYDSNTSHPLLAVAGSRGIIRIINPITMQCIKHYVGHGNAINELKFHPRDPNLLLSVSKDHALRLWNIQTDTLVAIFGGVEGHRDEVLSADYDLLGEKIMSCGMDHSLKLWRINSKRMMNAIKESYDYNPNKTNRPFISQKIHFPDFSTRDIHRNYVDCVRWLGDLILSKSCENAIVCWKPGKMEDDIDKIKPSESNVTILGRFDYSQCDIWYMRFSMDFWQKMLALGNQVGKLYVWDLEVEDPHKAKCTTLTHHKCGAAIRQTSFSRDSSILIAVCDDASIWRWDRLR
Method: Example 53: Evaluation of the Effect of the Compound in Blocking the Binding of EED to H3K27Me3 by AlphaScreen (a-Screening) Method
First, compound solutions with different concentration gradients are prepared. Compound powder is dissolved in DMSO to form mother liquor. 1.5 μL of the compound mother liquor is taken to 198.5 μL reaction buffer (25 mM HEPES (pH 8.0), 50 mM NaCl, 0.015% Tween 20, 0.5% BSA) and the solution is mix uniformly, and then 3-fold gradient dilution is performed with the above buffer containing 0.75% DMSO. 9 different test concentrations are set for the same compound. 5 μL of compounds with different concentration gradients was taken to ProxiPlate-384 Plus, White detection plate (PerkinElmer, 6008280), and 2 parallel replicates are set for each concentration gradient.
Next, a binding blocking reaction is performed. The full-length EED protein (441 amino acids) with His6 tag is diluted to 60 nM with the above buffer, and the biotinylated polypeptide fragment H3K27me3 (amino acids 19-33) (Biotinylated-H3K27me3) is diluted to 75 nM with the same buffer. 5 μL of 75 nM peptide fragments and 5 μL of 60 nM protein are transferred to the testing wells containing the compound respectively. The testing plate is sealed with a film, and is incubated for 30 minutes at room temperature.
Finally, AlphaScreen method is used for detection. Before use, nickel chelate acceptor beads and streptavidin donor beads (Perkin Elmer, product number 6760619M) are mixed into the above reaction buffer at a ratio of 1:1, and then 5 μL of the above pre-mixed testing solution is added to each testing well. The final concentration of the donor beads and acceptor beads is 5 μg/mL. The testing plate is covered with tin foil and placed at room temperature in the dark for 1 hour. Signals are read using an AlphaScreen detector on a Spectra max i3. The AlphaScreen signal is normalized according to the readings obtained from the positive control (maximum signal control) and negative control (minimum signal control) to give the inhibition rate of different concentrations of the compound. After that, non-linear regression analysis was performed with GraphPad Prism 5, and dose-response equation Y=Bottom+(Top−Bottom)/(1+10^((Log IC50−X)*HillSlope)) is used to make an inhibition curve, obtaining the IC50 value of each compound. […]

[3] = system: B-cell non-Hodgkin lymphoma cells KARPAS-422; assay: Cell proliferation analysis, KARPAS-422, 13 days, CellTiter-Glo; assay type: cell-based, Human
Method: Example 55: Cell Proliferation Analysis
Human B-cell non-Hodgkin lymphoma cells KARPAS-422 S were cultured in culture flasks using standard cell culture conditions. The culture medium contains 15% fetal bovine serum (FBS, Invitrogen, product number 10099-141), 1% penicillin/streptomycin solution (P/S) RPMI-1640 (Invitrogen, product number 11875), and the culture flask is placed and cultured in a sterile incubator at 37° C., 95% relative humidity, and 5% CO2. In order to detect the effect of PRC2 inhibitors on cell proliferation, cells in the exponential growth phase were seeded into 96-well plates (Corning, product number 3904) at a density of 1×10^4 cells/well, and 100 μL of medium was added to each well. Subsequently, the compounds disclosed herein at different concentrations were added to the wells seeded with cells (9 concentration gradients were set for each compound, and the highest detection concentration was 10 μM, 3-fold gradient dilution), and 2 repeats in parallel were set for each treatment concentration. The final concentration of DMSO is 0.5%. Then the number of surviving cells was counted with Vi-CELL (Beckman Coulter) every 3-4 days. The cells counted each time were seeded into a new 96-well plate at the same density (1×10^4 cells/well). The wells were supplemented with fresh medium to 100 μL, and different concentrations of the compound were added at the same time. The cells were cultured until the 13th day, on which 100 μL of CellTiter-Glo (CellTiter-GloCellTiter-GloCellTiter-GloCTG) (Promega, Product No. G7573) was added to each well. The plate was placed for 10-20 minutes in the dark at room temperature, and Molecular Devices and SpectraMax i3X were used to read the luminous signal. The data were fitted to a dose-response curve using GraphPad prisim5 and the IC50 values of the tested compounds were obtained.

[4] = Homo sapiens, KARPAS-422, 312 h, Karpas-422, 13 days

Row | SMILES | IC50 [2] [µM] | IC50 [3, 4] [µM] | IC50 ([3]; Karpas-422, 13 days) [µM] | IC50 ([1]; Homo sapiens, G-401, 72 h) [µM] | IC50 ([1]; 72 hours) [µM] | IC50 ([1]; Homo sapiens, G-401, 72 hours) [µM] | IC50 ([3]; Homo sapiens, KARPAS-422, 312 h) [µM]
1 | CCC(C)(O)c1ccc(-c2cnc(NCc3c(F)ccc4c3CCO4)n3cnnc23)c2ncnn12 (single isomer, unassigned) [Compound b] | 0.0089 |  | 0.0079 |  | 0.0017 |  | 
2 | CC(O)(c1ccc(-c2cnc(NCc3c(F)ccc4c3CCO4)n3cnnc23)c2ncnn12)C(F)(F)F (single isomer, unassigned) [Compound c] | 0.0025 | 0.0095 |  | 0.0017 |  |  | 
3 | CC(O)(c1ccc(-c2cnc(NCc3c(F)ccc4c3CCO4)n3cnnc23)c2ncnn12)C(F)(F)F (single isomer, unassigned) [Compound d] | 0.0055 |  |  |  |  | 0.0047 | 0.0087
4 | CCC(O)c1ccc(-c2cnc(NCc3c(F)ccc4c3CCO4)n3cnnc23)c2ncnn12 (single isomer, unassigned) [Compound e] | 0.0064 |  | 0.002 |  | 0.0004 |  | 
5 | CCC(O)c1ccc(-c2cnc(NCc3c(F)ccc4c3CCO4)n3cnnc23)c2ncnn12 (single isomer, unassigned) [Compound f] | 0.0066 |  | 0.0054 |  | 0.0013 |  | 
6 | CC(O)(c1ccc(-c2cnc(NCc3c(F)ccc4c3CCO4)n3cnnc23)c2ncnn12)C(F)(F)F (stereo not drawn) [1,1,1-trifluoro-2-(8-(5-(((5-fluoro-2,3-dihydrobenzofuran-4-yl)methyl)amino)-[1,2,4]triazolo[4,3-c]pyrimidin-8-yl)-[1,2,4]triazolo[1,5-a]pyridin-5-yl)propan-2-ol] | 0.0048 | 0.0088 |  | 0.0019 |  |  | 
7 | OC(CF)(CF)c1ccc(-c2cnc(NCc3c(F)ccc4c3CCO4)n3cnnc23)c2ncnn12 [1,3-difluoro-2-[8-(5-{[(5-fluoro-2,3-dihydro-1-benzofuran-4-yl)methyl]amino]-[1,2,4]triazolo[4,3-c]pyrimidin-8-yl)-[1,2,4]triazol[1,5-a]pyridin-5-yl]propan-2-ol] | 0.0069 | 0.0041 |  | 0.0011 |  |  | 
8 | Cc1ccc(-c2cnc(NCc3c(F)ccc4c3CCO4)n3cnnc23)c2ncnn12 [N-((5-fluoro-2,3-dihydrobenzofuran-4-yl)methyl)-8-(5-methyl-[1,2,4]triazolo[1,5-a]pyridin-8-yl)-[1,2,4]triazolo[4,3-c]pyrimidin-5-amine] | 0.0089 |  |  |  |  |  | 

The next lines start with results.

Row | IC50 [2] [µM] | IC50 [3, 4] [µM] | IC50 ([3]; Karpas-422, 13 days) [µM] | SMILES | IC50 ([1]; Homo sapiens, G-401, 72 h) [µM] | IC50 ([1]; 72 hours) [µM] | IC50 ([1]; Homo sapiens, G-401, 72 hours) [µM] | IC50 ([3]; Homo sapiens, KARPAS-422, 312 h) [µM]
9 | 0.0054 | 0.0041 |  | CCC(C)(O)c1ccc(-c2cnc(NCc3c(F)ccc4c3CCO4)n3cnnc23)c2ncnn12 (single isomer, unassigned) [Compound a] | 0.0012 |  |  | 
10 | 0.004 | 0.0015 |  | CC(O)(CF)c1ccc(-c2cnc(NCc3c(F)ccc4c3CCO4)n3cnnc23)c2ncnn12 (single isomer, unassigned) [Compound g] | 0.0006 |  |  | 
11 | 0.0048 |  | 0.0025 | CC(O)(CF)c1ccc(-c2cnc(NCc3c(F)ccc4c3CCO4)n3cnnc23)c2ncnn12 (single isomer, unassigned) [Compound h] |  | 0.0012 |  | 
12 | 0.003 | 0.0049 |  | OC(c1ccc(-c2cnc(NCc3c(F)ccc4c3CCO4)n3cnnc23)c2ncnn12)(C(F)F)C(F)F [1,1,3,3-tetrafluoro-2-(8-(5-(((5-fluoro-2,3-dihydrobenzofuran-4-yl)methyl)amino)-[1,2,4]triazolo[4,3-c]pyrimidin-8-yl)-[1,2,4]triazolo[1,5-a]pyridin-5-yl)propan-2-ol] | 0.0012 |  |  | 
13 | 0.0051 | 0.0048 |  | CC(O)(c1ccc(-c2cnc(NCc3c(F)ccc4c3CCO4)n3cnnc23)c2ncnn12)C(F)F (stereo not drawn) [1,1-difluoro-2-(8-(5-(((5-fluoro-2,3-dihydrobenzofuran-4-yl)methyl)amino)-[1,2,4]triazolo[4,3-c]pyrimidin-8-yl)-[1,2,4]triazolo[1,5-a]pyridin-5-yl)propan-2-ol] | 0.0015 |  |  | 
14 | 0.0047 |  |  | Fc1ccc2c(c1CNc1ncc(-c3cccn4ncnc34)c3nncn13)CCO2 [8-([1,2,4]triazolo[1,5-a]pyridin-8-yl)-N-((5-fluoro-2,3-dihydrobenzofuran-4-yl)methyl)-[1,2,4]triazolo[4,3-c]pyrimidin-5-amine] |  |  |  | 
15 | 0.0035 |  |  | Cc1ccc(-c2cnc(NCc3c(F)ccc4c3[C@H]3C[C@H]3O4)n3cnnc23)c2ncnn12 [N-(((1aR,6bR)-5-fluoro-1a,6b-dihydro-1H-cyclopropeno[b]benzofuran-6-yl)methyl)-8-(5-methyl-[1,2,4]triazolo[1,5-a]pyridin-8-yl)-[1,2,4]triazolo[4,3-c]pyrimidin-5-amine] |  |  |  | 
